What was measured:
[1] = target: T1, recombinant human CYP11B1 (Homo sapiens, UniProt P15538); assay: CYP11B1 enzyme assay, enzyme enriched microsomes from V79-4 cells, cortisol by LC-MS; format: biochemical; settings: IC50 ranges; run at Km of 11-deoxycortisol; read-out: hCYP11B1 IC50
T1 construct: made in house; host or cells: V79-4 cells (enzyme enriched microsomal fraction of cell lysates)
T1 sequence (P15538 25-503): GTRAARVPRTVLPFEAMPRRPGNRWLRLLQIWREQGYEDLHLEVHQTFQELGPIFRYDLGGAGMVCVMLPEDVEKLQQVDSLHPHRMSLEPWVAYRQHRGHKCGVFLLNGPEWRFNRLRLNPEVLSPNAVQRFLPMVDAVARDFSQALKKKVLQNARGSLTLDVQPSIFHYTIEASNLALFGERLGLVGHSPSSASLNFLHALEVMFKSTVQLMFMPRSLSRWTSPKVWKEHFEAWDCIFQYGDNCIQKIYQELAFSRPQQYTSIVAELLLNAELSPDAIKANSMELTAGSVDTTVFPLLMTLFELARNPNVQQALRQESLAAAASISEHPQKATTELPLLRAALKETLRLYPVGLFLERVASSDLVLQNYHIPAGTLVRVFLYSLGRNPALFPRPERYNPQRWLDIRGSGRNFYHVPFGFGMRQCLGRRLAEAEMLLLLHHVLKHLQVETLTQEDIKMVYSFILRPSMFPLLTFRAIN
Experimental: (§1) An enzyme enriched microsomal fraction was prepared from cellular lysates and subsequently used as the enzyme source for determining inhibitor IC50s. […] Enzyme assays for inhibitor screening employed CYP11B2 and CYP11B1 enzyme enriched microsomes and were run at the Km of the respective substrates. Products of the enzyme reactions, aldosterone for CYP11B2 or cortisol for CYP11B1, were measured by LC-MS. Assays were run under conditions of less than 20% substrate turnover. Inhibitor IC50s were generated by determining the product formation in the absence or presence of inhibitor at various concentrations. In the absence of the test compound, the product formed (Pt) in each data set was defined as 100% activity. In the absence of enzyme, the product formed (Pb) in each data set was defined as 0% activity. The percent activity in the presence of each inhibitor was calculated according to the following equation: % activity=(P−Pb)/(Pt−Pb), where P=the product formed in the presence of the inhibitor.

[2] = target: T2, recombinant human CYP11B2 (Homo sapiens, UniProt P19099); assay: CYP11B2 enzyme assay, enzyme enriched microsomes from V79-4 cells, aldosterone by LC-MS; format: biochemical; settings: IC50 ranges; run at Km of 11-deoxycorticosterone; read-out: hCYP11B2 IC50
T2 construct: made in house; host or cells: V79-4 cells (enzyme enriched microsomal fraction of cell lysates)
T2 sequence (P19099 25-503): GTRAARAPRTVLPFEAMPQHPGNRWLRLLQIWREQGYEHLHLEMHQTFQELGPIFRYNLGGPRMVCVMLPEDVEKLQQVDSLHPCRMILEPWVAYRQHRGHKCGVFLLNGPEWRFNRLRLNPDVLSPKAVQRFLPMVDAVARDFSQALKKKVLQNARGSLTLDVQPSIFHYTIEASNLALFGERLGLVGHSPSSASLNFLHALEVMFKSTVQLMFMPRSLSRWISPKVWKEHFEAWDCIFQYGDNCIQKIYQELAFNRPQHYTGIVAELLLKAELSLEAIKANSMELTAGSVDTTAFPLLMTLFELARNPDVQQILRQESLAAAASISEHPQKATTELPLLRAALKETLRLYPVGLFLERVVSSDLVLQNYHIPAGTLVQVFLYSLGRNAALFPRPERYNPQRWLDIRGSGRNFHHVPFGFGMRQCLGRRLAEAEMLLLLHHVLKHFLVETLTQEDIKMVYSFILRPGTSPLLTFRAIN
Experimental: as §1

Compound	IC50 [1] [nM]	IC50 [2] [nM]
CC(F)(F)c1ncncc1-c1nc2cc(F)c(F)cc2n1C1CC1 [Example 71, 1-Cyclopropyl-2-(4-(1,1-difluoroethyl)pyrimidin-5-yl)-5,6-difluoro-1H-benzo[d]imidazole]	1000 to 10000	1 to 100
Cc1ncc(-c2nc3ccc(F)cc3n2C2CC2)cn1 [Example 20, 1-Cyclopropyl-6-fluoro-2-(2-methylpyrimidin-5-yl)-1H-benzo[d]imidazole]	> 10000	1000 to 10000
COc1ncncc1-c1nc2ccc(F)cc2n1C1CC1 [Example 6, 1-Cyclopropyl-6-fluoro-2-(4-methoxypyrimidin-5-yl)-1H-benzo[d]imidazole]	> 10000	100 to 1000
Cc1ncncc1-c1nc2ccc(F)cc2n1C1CC1 [Example 4, 1-Cyclopropyl-6-fluoro-2-(4-methylpyrimidin-5-yl)-1H-benzo[d]imidazole]	1000 to 10000	1 to 100
Cc1ncncc1-c1nc2ccc(C#N)nc2n1C1CC1 [Example 52, 3-Cyclopropyl-2-(4-methylpyrimidin-5-yl)-3H-imidazo[4,5-b]pyridine-5-carbonitrile]	1000 to 10000	1 to 100
Fc1cc2nc(-c3cncnc3C3CC3)n(C3CC3)c2cc1F [Example 72, 1-Cyclopropyl-2-(4-cyclopropylpyrimidin-5-yl)-5,6-difluoro-1H-benzo[d]imidazole]	> 10000	100 to 1000
CS(=O)(=O)c1ccc2nc(-c3cncnc3)n(C3CC3)c2c1 [Example 26, 1-Cyclopropyl-6-(methylsulfonyl)-2-(pyrimidin-5-yl)-1H-benzo[d]imidazole]	> 10000	1000 to 10000
CCCc1ncncc1-c1nc2ccc(F)cc2n1C1CC1 [Example 14, 1-Cyclopropyl-6-fluoro-2-(4-propylpyrimidin-5-yl)-1H-benzo[d]imidazole]	1000 to 10000	1 to 100
CCCc1ncncc1-c1nc2ccc(C#N)cc2n1C1CC1 [Example 40, 1-Cyclopropyl-2-(4-propylpyrimidin-5-yl)-1H-benzo[d]imidazole-6-carbonitrile]	100 to 1000	1 to 100
CCn1c(-c2cncnc2C(F)(F)F)nc2ccc(Cl)nc21 [Example 68, 5-Chloro-3-ethyl-2-(4-(trifluoromethyl)pyrimidin-5-yl)-3H-imidazo[4,5-b]pyridine]	> 10000	100 to 1000
Cc1ncncc1-c1nc2cnc(C#N)cc2n1C1CC1 [Example 56, 1-Cyclopropyl-2-(4-methylpyrimidin-5-yl)-1H-imidazo[4,5-c]pyridine-6-carbonitrile]	> 10000	100 to 1000
N#Cc1ccc2nc(-c3cncnc3)n(C3CC3)c2c1 [Example 3, 1-Cyclopropyl-2-(pyrimidin-5-yl)-1H-benzo[d]imidazole-6-carbonitrile]	1000 to 10000	1 to 100
Fc1ccc2nc(-c3cncnc3Cl)n(C3CC3)c2c1 [Example 9, 2-(4-Chloropyrimidin-5-yl)-1-cyclopropyl-6-fluoro-1H-benzo[d]imidazole]	1000 to 10000	1 to 100
CC(C)c1ncncc1-c1nc2ccc(Cl)cc2n1C1CC1 [Example 24, 6-Chloro-1-cyclopropyl-2-(4-isopropylpyrimidin-5-yl)-1H-benzo[d]imidazole]	1000 to 10000	1 to 100
CC(C)(C)Nc1ncncc1-c1nc2cc(F)c(F)cc2n1C1CC1 [Example 34, N-(tert-Butyl)-5-(1-cyclopropyl-5,6-difluoro-1H-benz[d]imidazol-2-yl)pyrimidin-4-amine]	100 to 1000	1 to 100
Fc1cc2nc(-c3cncnc3NCC(F)(F)F)n(C3CC3)c2cc1F [Example 36, 5-(1-Cyclopropyl-5,6-difluoro-1H-benzo[d]imidazol-2-yl)-N-(2,2,2-trifluoroethyl)pyrimidin-4-amine]	100 to 1000	1 to 100
FC(F)(F)c1ncncc1-c1nc2cc(Cl)cnc2n1C1CC1 [Example 66, 6-Chloro-3-cyclopropyl-2-(4-(trifluoromethyl)pyrimidin-5-yl)-3H-imidazo[4,5-b]pyridine]	> 10000	1000 to 10000
c1ncc(-c2nc3c(n2C2CC2)CCCC3)cn1 [Example 57, 1-Cyclopropyl-2-(pyrimidin-5-yl)-4,5,67-tetrahydro-1H-benzo[d]imidazole]	> 10000	1000 to 10000

Compound	IC50 [1] [nM]	IC50 [2] [nM]
CCn1c(-c2cncnc2C(C)C)nc2ccc(C#N)cc21 [Example 41, 1-Ethyl-2-(4-isopropylpyrimidin-5-yl)-1H-benzo[d]imidazole-6-carbonitrile]	1000 to 10000	1 to 100
CC(F)(F)c1ncncc1-c1nc2ccc(C#N)cc2n1C1CC1 [Example 64, 1-Cyclopropyl-2-(4-(1,1-difluoroethyl)pyrimidin-5-yl)-1H-benzo[d]imidazole-6-carbonitrile]	1000 to 10000	1 to 100
CNc1ncncc1-c1nc2ccc(F)cc2n1C1CC1 [Example 12, 5-(1-Cyclopropyl-6-fluoro-1H-benzo[d]imidazol-2-yl)-N-methylpyrimidin-4-amine]	100 to 1000	1 to 100
CCc1ncncc1-c1nc2cc(F)c(F)cc2n1C1CC1 [Example 45, 1-Cyclopropyl-2-(4-ethylpyrimidin-5-yl)-5,6-difluoro-1H-benzo[d]imidazole]	1000 to 10000	1 to 100
COc1ccc2nc(-c3cncnc3)n(C3CC3)c2c1 [Example 25, 1-Cyclopropyl-6-methoxy-2-(pyrimidin-5-yl)-1H-benzo[d]imidazole]	> 10000	100 to 1000
CN(C)c1ncncc1-c1nc2cc(F)c(F)cc2n1C1CC1 [Example 32, 5-(1-Cyclopropyl-5,6-difluoro-1H-benzo[d]imidazol-2-yl)-N,N-dimethylpyrimidin-4-amine]	1000 to 10000	1 to 100
Cc1ncncc1-c1nc2ccc(C#N)cc2n1C1CC1 [Example 21, 1-Cyclopropyl-2-(4-methylpyrimidin-5-yl)-1H-benzo[d]imidazole-6-carbonitrile]	1000 to 10000	1 to 100
CC(=O)NCc1ncncc1-c1nc2ccc(F)cc2n1C1CC1 [Example 19, N-((5-(1-Cyclopropyl-6-fluoro-1H-benzo[d]imidazol-2-yl)pyrimidin-4-yl)methyl)acetamide]	> 10000	1000 to 10000
N#Cc1ncncc1-c1nc2ccc(F)cc2n1C1CC1 [Example 10, 5-(1-Cyclopropyl-6-fluoro-1H-benzo[d]imidazol-2-yl)pyrimidine-4-carbonitrile]	1000 to 10000	1 to 100
FC(F)c1ncncc1-c1nc2ccc(Cl)nc2n1C1CC1 [Example 62, 5-Chloro-3-cyclopropyl-2-(4-(difluoromethyl)pyrimidin-5-yl)-3H-imidazo[4,5-b]pyridine]	1000 to 10000	100 to 1000
CCn1c(-c2cncnc2C(F)(F)F)nc2ccc(C#N)cc21 [Example 53, 2-(4-(trifluoromethyl)pyrimidin-5-yl)-1-ethyl-1H-benzo[d]imidazole-6-carbonitrile]	1000 to 10000	1 to 100
CCc1ncncc1-c1nc2ccc(F)cc2n1CC [Example 16, 1-Ethyl-2-(4-ethylpyrimidin-5-yl)-6-fluoro-1H-benzo[d]imidazole]	1000 to 10000	100 to 1000
Cc1ncncc1-c1nc2ccc(C#N)cc2n1CC(F)(F)F [Example 49, 2-(4-Methylpyrimidin-5-yl)-1-(2,2,2-trifluoroethyl)-1H-benzo[d]imidazole-6-carbonitrile]	> 10000	100 to 1000
N#Cc1ccc2nc(-c3cncnc3)n(CC(F)(F)F)c2c1 [Example 43, 2-(Pyrimidin-5-yl)-1-(2,2,2-trifluoroethyl)-1H-benzo[d]imidazole-6-carbonitrile]	> 10000	1000 to 10000
Fc1ccc2nc(-c3cnc(Cl)nc3Cl)n(C3CC3)c2c1 [Example 35, 1-Cyclopropyl-2-(2,4-dichloropyrimidin-5-yl)-6-fluoro-1H-benzo[d]imidazole]	> 10000	1000 to 10000
CCc1ncncc1-c1nc2ccc(F)cc2n1C1CC1 [Example 5, 1-Cyclopropyl-2-(4-ethylpyrimidin-5-yl)-6-fluoro-1H-benzo[d]imidazole]	1000 to 10000	1 to 100
CCc1ncncc1-c1nc2ccc(F)c(F)c2n1C1CC1 [Example 17, 1-Cyclopropyl-2-(4-ethylpyrimidin-5-yl)-6,7-difluoro-1H-benzo[d]imidazole]	1000 to 10000	1 to 100

From patent US11919883B2, “Metalloenzyme inhibitor compounds” (Ji Xing Pharmaceuticals Hong Kong Limited, priority 2016, dated 2024)
